Tests used:
C. hominis TU502 = test: Cryptosporidium hominis growth inhibition assay (1,536-well); format: cell-based; conditions: HCT-8 cells, read-out: EC50 against C. hominis (isolate TU502)
Protocol: Cryptosporidium hominis growth inhibition assays were performed at the California Institute for Biomedical Research (Calibr), San Diego, CA, using a slightly modified immunofluorescence assay to enable automated compound handling and the use of 1,536-well microtiter plates ([19]). The HCT-8 culture medium was replaced with RPMI 1640 medium supplemented with 2% heat-inactivated horse serum, 100 U/ml penicillin, and […] streptomycin 24 h prior to infection with either C. hominis or the C. parvum Iowa isolate, used as a reference. […] Imaging was performed using a CellInsight CX5 High Content screening platform (Thermo Scientific) with a 10× objective and acquisition of one microscopic field per well. Images were processed using HCS Studio Scan software, and the selected-object count (HCT-8 cells) and spot count (C. hominis) were analyzed in Genedata Screener (version 13.0; Standard). Dose-response curves and EC values were calculated using the Smart Fit function of Genedata Analyzer.

HCT-8 cells = test: Host cell toxicity assay (CellTiter AQueous); format: cell-based, Human
Protocol: Host cell toxicity was measured as described previously ([20]). HCT-8 cells were grown to >95% confluence in 384-well plates. Increasing concentrations of compounds were added, and assay plates were incubated at 37°C under 5% CO2 for 48 h. The corner wells of each plate were trypsinized to remove cells and were used as blanks for measuring absorbance at 490 nm. Cell proliferation was measured using the CellTiter AQueous assay kit (Promega, USA) according to the manufacturer's instructions and was expressed as the percentage of proliferation with the vehicle control (DMSO). GraphPad Prism software, version 6.01, was used to plot graphs and calculate the concentration that inhibits 50% of host cell proliferation relative to that with the DMSO control (50% toxic concentration [TC50]). A selectivity index (SI) was calculated as the ratio of the […].

C. parvum = test: Parasite persistence (time-kill) assay in HCT-8 cells; format: cell-based, Cryptosporidium parvum
Protocol: Excysted C. parvum oocysts were added to >90% confluent HCT-8 cells in 384-well plates. […] At ∼24 h (i.e., the time of compound addition) and at various time intervals thereafter, parasites were washed, fixed, permeabilized, stained, and imaged as for the C. parvum growth assay. For the extended-compound-exposure experiments, the medium and compound were replaced every 3 days. A separate 384-well plate was used for each time interval. Parasite numbers were normalized to host cell nucleus numbers and are expressed as the percentage of parasites per host cell nucleus. In order to fit parasite decay curves, the effect of drugs was isolated from expected changes in parasite numbers over time by expressing the number of parasites as the percentage of the number of parasites with the control, dimethyl sulfoxide (DMSO), for each time point. Exponential decay curves were fit using GraphPad Prism software, version 6.01, and curve validity was assessed using the replicates test.

[1] = parameters: method as in PMID 27467575; conditions: single oral dose of 55 mg/kg; cited from earlier work
hERG = tested on: hERG; parameters: method as in PMID 27467575; conditions: at 11 μM; cited from earlier work
[2] = tested on: 11 species of bacteria, 12 protozoa, and 7 helminths; parameters: method as in PMID 27467575; conditions: cited from earlier work

Q: What does the source list for `O=C(Nc1ccc(Cl)cc1)N1CCN(c2ccc3nncn3n2)CC1` [MMV665917, Clc1ccc(NC(=O)N2CCN(CC2)c3ccc4nncn4n3)cc1]?
A: EC50 (C. hominis TU502): 4.05 µM; TC50, host HCT-8 cell toxicity (HCT-8 cells; 48 h, CellTiter AQueous): > 100 µM; selectivity index (SI) (HCT-8 cells; HCT-8 TC50 versus C. parvum EC50): > 47; toxic effect on host HCT-8 cell proliferation (HCT-8 cells; concentrations as high as 100 μM): no toxic effect; concentration giving maximal rate of parasite elimination (C. parvum): 3 × EC90; parasiticidal or parasitistatic for C. parvum (C. parvum): parasiticidal; decay rate constant (r) (C. parvum; 3× EC90, one-phase exponential decay): 0.05346; decay rate constant (r) (C. parvum; 12× EC90, one-phase exponential decay): 0.05864; percentage of host cells infected, extended treatment (C. parvum; day 13 of treatment, 12 × EC90, medium and drug replaced every 3 days): ~0.1%; plasma MMV665917 levels over time [1]: continued to increase for 9 h; hERG inhibition (hERG): 58%; activity in numerous biological assays (bacteria, protozoa, helminths) [2]: inactive
